# Measured values: article PMC5800941 (Biochemistry, 2017)
# “Also recorded” adds a separate entry of the source.
# Experiments:
# CYP3A4 = CYP3A4 (Homo sapiens, UniProt P08684, S18F); experiment: Substrate binding to CYP3A4 in Nanodiscs: UV-Vis spectral titration; conditions: human, recombinant CYP3A4 in POPC Nanodiscs
# CYP3A4 in POPC Nanodiscs [1] = target: T1, CYP3A4 in POPC Nanodiscs (Homo sapiens, UniProt P08684, S18F); experiment: as above; conditions: for Fe^3+ Spin shift (fraction of high spin): 37 C
# CYP3A4 in POPC Nanodiscs [2] = target: T1, CYP3A4 in POPC Nanodiscs; experiment: Product formation; type: biochemical; conditions: binding intermediate with 1 substrate molecule bound; 37 C, pH 7.4
# CYP3A4 in POPC Nanodiscs [3] = target: T1, CYP3A4 in POPC Nanodiscs; type: biochemical; conditions: mixture of ARVL and DND at constant molar ratio 2.9:1; one of each substrate bound
compound,measurement,setting,value
"CC(C)c1c(C(=O)Nc2ccccc2)c(-c2ccccc2)c(-c2ccc(F)cc2)n1CC[C@@H]1C[C@@H](O)CC(=O)O1 [ARVL, atorvastatin lactone]",Kd,CYP3A4,22 µM
same,Kd,CYP3A4 in POPC Nanodiscs [1],1 µM
same,Fe^3+ Spin shift (fraction of high spin),CYP3A4 in POPC Nanodiscs [1]; binding intermediate with 1 substrate molecule bound,22 [16 – 26] %
same,Fe^3+ Spin shift (fraction of high spin),CYP3A4 in POPC Nanodiscs [1]; binding intermediate with 2 substrate molecules bound,62 [56 – 72] %
same,Product formation rate,CYP3A4 in POPC Nanodiscs [2],13 [9.6 – 14.7] min^−1
same,Rate of metabolism from the mixed intermediate,CYP3A4 in POPC Nanodiscs [3],31 min⁻¹
"CCCCc1oc2ccc(NS(C)(=O)=O)cc2c1C(=O)c1ccc(OCCCN(CCCC)CCCC)cc1 [DND, dronedarone]",Kd,CYP3A4,3.6 µM
same,Product formation rate,CYP3A4 in POPC Nanodiscs [2],2.5 [1.6 – 3.4] min^−1
same,Rate of metabolism from the mixed intermediate,CYP3A4 in POPC Nanodiscs [3],No product of DND metabolism was detected; also recorded: completely inhibited
